The values that follow come from patent US10563271B2, “High-level production of diacetyl in a metabolically engineered lactic acid bacterium” (Danmarks Tekniske Universitet, priority 2015, dated 2020).

The test system of experiment [1] is L. lactis strain CS4616m. The experiment is described as follows: Respiration-dependent aerobic growth of L. lactis strain CS4616m at different hemin concentrations. Type of experiment: cell-based, Lactococcus lactis subsp. cremoris. The method, then:
L. lactis were grown aerobically at 30° C. in rich M17 broth (Terzaghi et al., 1975) supplemented with 2% (w/v) glucose and different concentrations of hemin in shaken 250 ml conical flasks. When required, antibiotics were added in the following concentrations: erythromycin: 200 μg/ml for E. coli and 5 μg/ml for L. lactis, tetracycline: 8 μg/ml for E. coli and 5 μg/ml for L. lactis, chloramphenicol: 20 μg/ml for E. coli and 5 μg/ml for L. lactis.
However, growth of the L. lactis strain was restored under aerobic conditions when hemin was present (FIG. 2B). The specific growth rate and final biomass density (OD600 nm) of the L. lactis strain increased in response to hemin concentrations of above 0.2 μg/ml, where a growth rate of 0.8 h^−1 and cell density of OD600 nm 8.5 was measured using a growth medium comprising 2% glucose, hemin levels were 1 μg/ml or above.

Experiment [2] deals with L. lactis strain CS4616m. Description: Measurement of intracellular NADH and NAD+ (NAD+/NADH-Glo Assay). Type of experiment: cell-based, Lactococcus lactis subsp. cremoris. The method, then:
L. lactis cell culture harvested in the mid-exponential growth phase (OD600 nm=0.6) was frozen in liquid nitrogen and stored at −20° C. Extraction and quantification of NADH and NAD^+ were performed using the kit NAD^+/NADH-Glo™ Assay (Promega) according to the instructions. Intracellular NADH and NAD^+ concentrations were estimated by assuming that 1 g (dry weight) of cells corresponded to 1.67 ml of intracellular volume and the cell density of 1 OD600 nm corresponds to 0.35 g/I dry cell mass.
In the L. lactis respiration chain (FIG. 2A), electrons are transferred from NADH dehydrogenase (NoxAB), menaquinone to Cyt bd oxidase in the presence of hemin. The observed growth and NADH/NAD+ ratio of genetically engineered strain CS4616m induced by hemin is consistent with the theory that NADH generated by the glycolysis pathway can be replenished through respiration and that suitable hemin activators can be used to fine-tune respiration and restore cell growth in this strain.

Experiment [3] has as its system L. lactis strain CS4616m. The experiment is described as follows: Metal ion enhancement of diacetyl production from acetolactate in stationary-phase CS4616m culture. The arrangement: species or system Lactococcus lactis subsp. cremoris. The method, then:
Graphical presentation of diacetyl formation from acetolactate as a function of time (hr) when L. lactis strain CS4616m is cultured in the presence of increasing levels of either Fe^3+ (B); Fe^2+ (C); and Cu^2+ (D). The time point for adding the metal catalysts during the cultivation of L. Lactis strain CS4616m was at 9.8 h, which is indicated by the straight line in (A). Experiments were conducted in duplicate and error bars indicate standard deviations.
Glucose, lactate, and ethanol were detected and quantitated using the Ultimate 3000 high-pressure liquid chromatography system (Dionex, Sunnyvale, USA) equipped with a Aminex HPX-87H column (Bio-Rad, Hercules, USA) and a Shodex RI-101 detector (Showa Denko K.K., Tokyo, Japan). Pyruvate was detected and quantitated using the DAD-3000 diode array detector (Dionex, Sunnyvale, USA). The column oven temperature was set at 60° C. with a mobile phase of 5 mM H2SO4, and the flow rate was 0.5 ml/min. Acetoin and α-acetolactate were measured colorimetrically based on Westerfeld et al. (1945). Diacetyl concentration was determined as described by Benson et al (1996).
When the cells entered the stationary phase, different concentrations of these metal catalysts were added to the cultivation medium. […] The yield and productivity for diacetyl production was as high as 0.87 mol mol^−1 glucose and 0.58 g/L·h based on 4 h data.

For experiment [4], the system named is L. lactis strain CS4616m. The experiment is described as follows: Inhibition of growth of CS4616m culture by metal ions or diacetyl. Type of experiment: cell-based, Lactococcus lactis subsp. cremoris. The method, then:
FIG. 5. Inhibitory effect of diacetyl on growth of L. lactis CS4616m. (A) Graphical presentation of cell growth of L. Lactis strain CS4616m, as measured by cell density (OD600 nm), in the presence of diacetyl (0-10 mM), which was added when the culture reached a cell density (OD600 nm) of 0.6. (B) Graphical presentation of cell growth of L. Lactis strain CS4616m, as measured by cell density (OD600 nm), and substrate/product profile in the presence of 10 mM Fe^3+ (added in the beginning of growth phase).
The observed high yields of diacetyl by cells of the L. lactis strain CS4616m are achieved by the addition of metal ions to the cells after they have reached the desired cell biomass. […] The final biomass of a culture grown in the presence of 10 mM Fe^3+ was only 3.3 (OD600 nm) (FIG. 5B) compared to 8.5 (OD600 nm) in the absence of a Fe^3+ supplement (FIG. 5A). […] In summary, for optimal diacetyl production, L. lactis strain CS4616m should be cultivated under aerobic conditions in the presence of a carbon source, e.g. glucose, in the presence of hemin until a sufficient biomass has been reached, followed by the addition of metal ions, preferably Fe^3+ or Cu^2+), and maintaining the aerobic conditions, in order for the accumulated acetolactate to be converted into diacetyl with high yield. The observed increase in diacetyl production by cells of the L. lactis strain CS4616m in response to Fe^3+, Fe^2+ and Cu^2+ is consistent with the finding that these metal ions serve as accelerators of the non-enzymatic oxidative decarboxylation flux from acetolactate to diacetyl. Optionally, once a sufficient biomass of the genetically modified Lactococcus lactis has been obtained following cultivation in the presence of a source of protoporphyrin IX or iron-containing porphyrin (e.g. hemin), the conversion of accumulated acetolactate can be accelerated by elevating the temperature of the culture or culture medium, for example to 60-65 degrees centigrade.

[5] abbreviates: aerobic, growth medium 2% glucose, hemin 1 μg/ml or above.
[6] abbreviates: 10 or 20 mM, present in growth medium from the beginning of the growth phase.

In the experiment on L. lactis strain CS4616m [1] (setting [5]), hemin had a cell density of 8.5 OD600 nm and a growth rate of 0.8 h⁻¹. In addition, the “effect on cell growth” value in the experiment with L. lactis strain CS4616m [1] (elevated hemin, circa 10 μg/ml or above (data not shown)) is “significant negative effect on cell growth”. In addition, the “final cell biomass and NADH/NAD+ ratio” value in the experiment with L. lactis strain CS4616m [1] (hemin above 1 μg/ml (e.g. 5 μg/ml)) is reported as “did not further increase”. Besides, in the experiment with L. lactis strain CS4616m [1] (hemin present), the “growth of the strain under aerobic conditions” value is reported as “restored”. In the experiment with L. lactis strain CS4616m [2] (0.3 μg/ml hemin), the “NADH/NAD+ ratio” value was found to be 0.07 and the “intracellular NAD+ concentration” value stood at 0.25 mM. Moreover, in the experiment with L. lactis strain CS4616m [2] (1 μg/ml hemin), the “NADH/NAD+ ratio” value is listed as 0.03 and the “intracellular NAD+ concentration” value turned out to be 0.47 mM.
Take `[Fe+3]` [Fe^3+]: the diacetyl concentration in the experiment with L. lactis strain CS4616m [3] (20 mM Fe^2+ added at stationary phase, after 4 h) was 78 mM; in the experiment with L. lactis strain CS4616m [3] (30 mM Fe^3+ added at stationary phase, after 2 h, 108 mM glucose), 85 mM; in the experiment on L. lactis strain CS4616m [3] (30 mM Fe^3+ added at stationary phase, after 4 h, 108 mM glucose) it was 95 mM. Further, the “productivity for diacetyl production” value with L. lactis strain CS4616m [3] (30 mM Fe^3+, based on 4 h data) was 0.58 g/L·h. For the same molecule, the “yield for diacetyl production” value with L. lactis strain CS4616m [3] (30 mM Fe^3+, based on 4 h data) is listed as 0.87 mol mol^−1 glucose. Besides, the final biomass in the experiment on L. lactis strain CS4616m [4] (10 mM Fe^3+ from beginning of growth, 8.5 without Fe^3+ supplement) is recorded as 3.3 OD600 nm. Also, the cell growth entry in the experiment on L. lactis strain CS4616m [4] (setting [6]) is “inhibited growth”.
Regarding `CC(=O)C(C)=O` [diacetyl], the cell growth result in the experiment with L. lactis strain CS4616m [4] (diacetyl (0-10 mM) added at OD600 nm of 0.6) is recorded as “inhibit cell growth”.
For `[Cu+2]` [Cu^2+], in the experiment with L. lactis strain CS4616m [3] (30 mM Cu^2+ added at stationary phase, after 1 h), the diacetyl concentration is 78 mM. The “productivity for diacetyl production” value with L. lactis strain CS4616m [3] (30 mM Cu^2+, after 1 h) came out at 0.619 g/L·h. Further, the cell growth result is given as “inhibited growth” in the experiment with L. lactis strain CS4616m [4] (setting [6]) and “totally abolished cell growth” in the experiment on L. lactis strain CS4616m [4] (metal ion added during the growth phase).
